According to patent US20260274955A1, “ANTIBODIES FOR TARGETING CD28 AND USES THEREOF” (Janux Therapeutics, Inc., priority 2023, published 2026):
Read-outs that look alike come from different tables or passages of the source.

Key:
[1] = molecular target: anti-CD28 Fab (SEQ ID NOs: 202, 203); test: Competition ELISA: peptide inhibition of anti-CD28 Fab binding to plate-bound CD28 (also alanine scanning peptides); conditions: anti-CD28 Fab fixed at 1 nM
Procedure: Ab-1 fixed at 1 nanomolar (nM) concentration was pre-incubated with 0-100 micromolar (μM) titrated peptides. After a short pre-incubation period, the mixture of titrated peptide with fixed Ab-1 were added to the CD28 antigen coated plates. After a short incubation on the plates, bound Ab-1 was detected with a standard horse radish peroxidase conjugated secondary antibody.
(§1) The anti-CD28 Fab was fixed at a concentration of 1 nM and incubated with titrated 0-100 μM peptides.

[2] = molecular target: anti-CD28 scFv (disulfide) (SEQ ID NO: 67); test: Competition ELISA: peptide inhibition of anti-CD28 scFv (disulfide) binding to plate-bound CD28
Procedure: […] After a short pre-incubation period, the mixture of titrated peptide with fixed Ab-1 were added to the CD28 antigen coated plates. After a short incubation on the plates, bound Ab-1 was detected with a standard horse radish peroxidase conjugated secondary antibody.
as §1

[3] = molecular target: anti-CD28 scFv (SEQ ID NO: 35); test: Kinetic binding by bio-layer interferometry (Octet RED96): anti-CD28 scFv to peptides; parameters: species or system human; conditions: for Kd: CD28 scFv titrated 100-12.5 nM, 200 nM peptide load
Procedure: (§2) Briefly, streptavidin biosensors were loaded with biotinylated peptides and baselined in buffer. […] After a short association period, sensors were transferred into buffer and the dissociation of bound anti-CD28 scFv was measured. The timing and steps of the experiment are shown in the accompanying table. Association and dissociation signals were recorded in real time and analyzed using a 1:1 binding model within the instrument software. Analysis using a 1:1 binding model enabled the calculation of the on and off rate constants as well as affinity, KD.
as §2, with “KD. FIGS. 48A-48F illustrate kinetic binding of anti-CD28 scFv binding to peptides as measured by Octet. FIGS. 48G-48U illustrate kinetic binding of peptides to the anti-CD28 scFv as measured by Octet.” for “KD.”

Ab-1 = test: Kinetic binding via BLI (Octet): Ab-1 binding to peptide-loaded sensors; parameters: species or system human; conditions: Table 15, 100 nM Ab-1
Procedure: (§3) Kinetic binding of the peptides of Table 1 to Ab-1 was evaluated using biolayer interferometry (BLI). Briefly, biotinylated peptides were loaded onto a streptavidin coated Octet® SAX biosensor, quenched in biocytin, and baselined in buffer. Ab-1 was titrated in solution and associated onto the peptide loaded sensor. After a short association period, sensors were transferred into buffer and the dissociation of bound Ab-1 was measured. Association and dissociation signals were recorded in real time and analyzed using a 1:1 binding model within the instrument software. Analysis using a 1:1 binding model enabled the calculation of the on and off rate constants as well as affinity, KD.

[4] = test system: anti-CD28 Fab (SEQ ID NOs: 202, 203); test: Kinetic binding via BLI: peptides to anti-CD28 Fab; conditions: for Off rate t½: Table 18, anti-CD28 Fab; for Kd / t½: binding to anti-CD28 Fab
Procedure: as §3, with “Briefly, biotinylated peptides were loaded onto a streptavidin coated Octet® SAX biosensor, quenched in biocytin, and baselined in buffer.” left out
Kinetic binding of the peptides to anti-CD28 Fab (SEQ ID NOs: 202, 203) was evaluated using BLI as described above.

[5] = titrated 0-100 μM peptides, plate-bound CD28 antigen, read-out: anti-CD28 Fab Competition ELISA IC50
[6] = read-out: anti-CD28 scFv (disulfide) Competition ELISA IC50, anti-CD28 scFv fixed at 0.3 nM, titrated 0-100 μM peptides, plate-bound CD28 antigen
[7] = Table 18, 0-100 μM peptide, read-out: Competition ELISA IC50
[8] = Table 17, 0-100 μM peptide, read-out: Competition ELISA IC50
[9] = BLI Octet RED96, biotinylated peptide loaded on streptavidin sensor, anti-CD28 scFv 100-12.5 nM, 1:1 binding model
[10] = Table 19, anti-CD28 scFv (disulfide) fixed at 0.3 nM, 0-100 μM peptide, read-out: Competition ELISA IC50

Sequence of anti-CD28 scFv (SEQ ID NO: 35) (as listed by the source): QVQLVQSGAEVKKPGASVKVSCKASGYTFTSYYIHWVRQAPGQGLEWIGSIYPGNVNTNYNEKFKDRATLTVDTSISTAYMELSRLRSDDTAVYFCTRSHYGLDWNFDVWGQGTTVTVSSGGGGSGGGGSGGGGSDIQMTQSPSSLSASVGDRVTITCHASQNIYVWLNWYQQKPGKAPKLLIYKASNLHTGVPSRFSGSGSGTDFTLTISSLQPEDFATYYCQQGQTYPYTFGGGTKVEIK
Sequence of anti-CD28 Fab (SEQ ID NOs: 202, 203) (as listed by the source): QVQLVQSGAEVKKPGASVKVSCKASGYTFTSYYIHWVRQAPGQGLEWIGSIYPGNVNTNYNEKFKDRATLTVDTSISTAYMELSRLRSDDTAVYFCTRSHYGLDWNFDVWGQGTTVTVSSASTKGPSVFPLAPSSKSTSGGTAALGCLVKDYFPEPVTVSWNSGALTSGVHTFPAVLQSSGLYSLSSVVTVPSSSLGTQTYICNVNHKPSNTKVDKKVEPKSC
Sequence of anti-CD28 Fab (SEQ ID NOs: 202, 203) (as listed by the source): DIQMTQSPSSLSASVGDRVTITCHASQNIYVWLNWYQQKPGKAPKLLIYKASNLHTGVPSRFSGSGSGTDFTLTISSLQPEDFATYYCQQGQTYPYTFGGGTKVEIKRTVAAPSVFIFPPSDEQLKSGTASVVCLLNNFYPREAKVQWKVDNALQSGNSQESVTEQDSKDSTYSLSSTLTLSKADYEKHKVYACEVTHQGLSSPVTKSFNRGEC
Sequence of anti-CD28 scFv (disulfide) (SEQ ID NO: 67) (as listed by the source): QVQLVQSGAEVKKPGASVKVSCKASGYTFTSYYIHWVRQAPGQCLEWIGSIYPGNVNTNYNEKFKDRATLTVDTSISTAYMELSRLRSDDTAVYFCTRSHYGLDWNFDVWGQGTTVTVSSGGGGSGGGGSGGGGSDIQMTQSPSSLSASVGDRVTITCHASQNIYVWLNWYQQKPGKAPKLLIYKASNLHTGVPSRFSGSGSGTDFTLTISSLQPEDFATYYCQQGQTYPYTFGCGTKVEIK

Substance: ACAGHAWQYINKCL [Peptide-59, alanine scanning peptide of Peptide-39]
- IC50 [1, 5]: > 100 µM
- IC50 [2, 6]: > 100 µM

Substance: GYCHYWGDMVMWCG [Peptide-118]
- Kd ([3]; Table 28, 1:1 model): 0.017 µM
- kdis ([3]; Table 28, CD28 scFv, 1:1 model): 0.00167 s⁻¹
- kon ([3]; Table 28, CD28 scFv, 1:1 model): 98700 M⁻¹ s⁻¹

Substance: HCSGHHWLQVWKCF [Peptide-82, optimization library of Peptide-39]
- IC50 [1, 7]: > 100 µM

Substance: LCAAGFTYPWPLCL [Peptide-107, optimization library of Peptide-44]
- IC50 [1, 8]: > 100 µM

Substance: LCKPGVPYKWPTCL [Peptide-108, optimization library of Peptide-44]
- IC50 [1, 8]: > 100 µM

Substance: MDWCPIDLWNECFF [Peptide-137]
- kdis [3, 9]: 0.00369 s⁻¹
- kon [3, 9]: 51400 M⁻¹ s⁻¹

Substance: MDWCPIHLWHVCFN [Peptide-138]
- kdis [3, 9]: 0.00295 s⁻¹
- kon [3, 9]: 59100 M⁻¹ s⁻¹

Substance: MDWCPIYLWSECFN [Peptide-139]
- kdis [3, 9]: 0.00153 s⁻¹
- kon [3, 9]: 29000 M⁻¹ s⁻¹

Substance: MDWCPLHMWHECFS [Peptide-141]
- kdis [3, 9]: 0.00497 s⁻¹
- kon [3, 9]: 39000 M⁻¹ s⁻¹

Substance: MDWCPLYLWNECFN [Peptide-142]
- kdis [3, 9]: 0.00252 s⁻¹
- kon [3, 9]: 36700 M⁻¹ s⁻¹

Substance: MDWCPRDLWDLCFA [Peptide-143]
- kdis [3, 9]: 0.00351 s⁻¹
- kon [3, 9]: 35900 M⁻¹ s⁻¹

Substance: MDWCPRDLWHECFA [Peptide-144]
- kdis [3, 9]: 0.00277 s⁻¹
- kon [3, 9]: 30000 M⁻¹ s⁻¹

Substance: MDWCPRDLWHLCFS [Peptide-145]
- kdis [3, 9]: 0.00265 s⁻¹
- kon [3, 9]: 51100 M⁻¹ s⁻¹

Substance: MDWCPRDLWSECFF [Peptide-146]
- kdis [3, 9]: 0.0031 s⁻¹
- kon [3, 9]: 38800 M⁻¹ s⁻¹

Substance: MDWCPRDLWVHCFA [Peptide-1]
- kdis [3, 9]: 0.00154 s⁻¹
- kon [3, 9]: 36400 M⁻¹ s⁻¹

Substance: MDWCPRDMWDECFA [Peptide-147]
- kdis [3, 9]: 0.00433 s⁻¹
- kon [3, 9]: 28400 M⁻¹ s⁻¹

Substance: MDWCPRDMWSECFA [Peptide-148]
- kdis [3, 9]: 0.0032 s⁻¹
- kon [3, 9]: 16700 M⁻¹ s⁻¹

Substance: MDWCPRDMWSVCFS [Peptide-149]
- kdis [3, 9]: 0.00812 s⁻¹
- kon [3, 9]: 21700 M⁻¹ s⁻¹

Substance: MDWCPRERWVDCFF [Peptide-116]
- Kd ([3]; Table 28, 1:1 model): 0.377 µM
- kdis ([3]; Table 28, CD28 scFv, 1:1 model): 0.0123 s⁻¹
- kon ([3]; Table 28, CD28 scFv, 1:1 model): 32500 M⁻¹ s⁻¹

Substance: MDWCPRERWVDCFF [Peptide-156]
- kdis [3, 9]: 0.0115 s⁻¹
- kon [3, 9]: 41500 M⁻¹ s⁻¹

Substance: MDWCPRFMWDECFN [Peptide-150]
- kdis [3, 9]: 0.00364 s⁻¹
- kon [3, 9]: 27100 M⁻¹ s⁻¹

Substance: MDWCPRHMWNYCFA [Peptide-151]
- kdis [3, 9]: 0.00218 s⁻¹
- kon [3, 9]: 61900 M⁻¹ s⁻¹

Substance: MDWCPRSLWHECFA [Peptide-152]
- kdis [3, 9]: 0.00201 s⁻¹
- kon [3, 9]: 38900 M⁻¹ s⁻¹

Substance: MDWCPRYLWHVCFA [Peptide-153]
- kdis [3, 9]: 0.00187 s⁻¹
- kon [3, 9]: 88900 M⁻¹ s⁻¹

Substance: MDWCPVHLWSVCFA [Peptide-155]
- kdis [3, 9]: 0.00443 s⁻¹
- kon [3, 9]: 92300 M⁻¹ s⁻¹

Substance: MHWCPVDLWYLCYN [Peptide-154]
- kdis [3, 9]: 0.00186 s⁻¹
- kon [3, 9]: 88200 M⁻¹ s⁻¹

Substance: MNWCPKDIWYLCFN [Peptide-140]
- kdis [3, 9]: 0.00684 s⁻¹
- kon [3, 9]: 77000 M⁻¹ s⁻¹

Substance: Met(O)2-DWCPRDLWVHCFA [Peptide-21]
- Octet signal (20 nM peptide) (Ab-1): 0.4179

Substance: Met(O)-DWCPRDLWVHCFA [Peptide-20]
- Octet signal (20 nM peptide) (Ab-1): 0.1733

Substance: SCAAAASYAWPYCL [Peptide-52, alanine scanning peptide of Peptide-44]
- IC50 [1, 5]: > 100 µM
- IC50 [2, 6]: > 100 µM

Substance: SCAAGASAAWPYCL [Peptide-54, alanine scanning peptide of Peptide-44]
- IC50 [1, 5]: > 100 µM
- IC50 [2, 6]: > 100 µM

Substance: SCAAGASYAAPYCL [Peptide-55, alanine scanning peptide of Peptide-44]
- IC50 [1, 5]: > 100 µM
- IC50 [2, 6]: > 100 µM

Substance: SCAAGASYAWAYCL [Peptide-56, alanine scanning peptide of Peptide-44]
- IC50 [1, 5]: > 100 µM
- IC50 [2, 6]: > 100 µM

Substance: SCAAGASYAWPYCA [Peptide-58, alanine scanning peptide of Peptide-44]
- IC50 [2, 6]: > 100 µM

Substance: SCAAGASYAWPYCL [Peptide-44]
- IC50 [2, 10]: > 100 µM

Substance: WCWDYKLWVPMTCP [Peptide-37]
- IC50 ([1]; Table 16, 0-100 μM peptide, read-out: Competition ELISA IC50): > 100 µM
- IC50 [2, 10]: > 100 µM

Substance: YCAAHAWQYINKCL [Peptide-60, alanine scanning peptide of Peptide-39]
- IC50 [1, 5]: > 100 µM
- IC50 [2, 6]: > 100 µM

Substance: YCAGAAWQYINKCL [Peptide-61, alanine scanning peptide of Peptide-39]
- IC50 [1, 5]: > 100 µM
- IC50 [2, 6]: > 100 µM

Substance: YCAGHAWQAINKCL [Peptide-64, alanine scanning peptide of Peptide-39]
- IC50 [1, 5]: > 100 µM
- IC50 [2, 6]: > 100 µM

Substance: YCAGHAWQYANKCL [Peptide-65, alanine scanning peptide of Peptide-39]
- IC50 [2, 6]: > 100 µM

Substance: YCAGHAWQYINACL [Peptide-67, alanine scanning peptide of Peptide-39]
- IC50 [1, 5]: > 100 µM
- IC50 [2, 6]: > 100 µM

Substance: YCAGHAWQYINKCL [Peptide-39]
- IC50 [2, 10]: > 100 µM
- Off rate t½ [4]: 42 s
- Kd [4]: 2.02 µM
- t½ [4]: 36 s

Substance: YCAGHSPINIGKCL [Peptide-36]
- IC50 [2, 10]: > 100 µM

Substance: YCEGHAPEYIAKCL [Peptide-73, optimization library of Peptide-39]
- Off rate t½ [4]: 24 s
- Kd [4]: 0.831 µM
- t½ [4]: 24 s

Substance: YCEGHLPEYIEKCL [Peptide-72, optimization library of Peptide-39]
- Off rate t½ [4]: 30 s
- Kd [4]: 0.926 µM
- t½ [4]: 30 s

Substance: YCEGHLPEYIQKCL [Peptide-86, optimization library of Peptide-39]
- Off rate t½ [4]: 54 s
- t½ [4]: 60 s

Substance: YCEGHLPEYIWKCL [Peptide-87, optimization library of Peptide-39]
- Off rate t½ [4]: 54 s

Substance: YCEGHLPEYLAKCL [Peptide-79, optimization library of Peptide-39]
- Off rate t½ [4]: 60 s
- Kd [4]: 0.0447 µM
- t½ [4]: 60 s

Substance: YCEGHLPEYREKCL [Peptide-78, optimization library of Peptide-39]
- Off rate t½ [4]: 36 s
- t½ [4]: 36 s

Substance: YCEGHLPEYRNKCL [Peptide-84, optimization library of Peptide-39]
- Off rate t½ [4]: 48 s
- Kd [4]: 0.11 µM
- t½ [4]: 48 s

Substance: YCWSHSPPFIKKCY [Peptide-83, optimization library of Peptide-39]
- IC50 [1, 7]: > 100 µM
